The results in this text go back to article PMC3160329, “Functional Dissection of the Proton Pumping Modules of Mitochondrial Complex I” (PLoS Biology, 2011).

The test has as its target T1, subcomplex nb8mΔ (Yarrowia lipolytica, UniProt Q9B6E8+Q9UUT7+Q9UUU1+Q9UUU2).
T1 construct: gene nucm; complex I subcomplex lacking 14 subunits of the PD module (incl. ND4, ND5, NB8M); about 680 kDa; C-terminal His tag on NUGM; purified, asolectin proteoliposomes; with NADH-ubiquinone oxidoreductase 75 kDa subunit; NADH-ubiquinone oxidoreductase 30 kDa subunit; NADH-ubiquinone oxidoreductase 24 kDa subunit; NADH-ubiquinone oxidoreductase 23 kDa subunit; NADH-ubiquinone oxidoreductase chain 2; NADH-ubiquinone oxidoreductase chain 3; NADH-ubiquinone oxidoreductase chain 6; NADH-ubiquinone oxidoreductase chain 4L
Kind of test: NADH:DBQ oxidoreductase activity, NADH oxidation. To be noted: 100 µM DBQ, 100 µM NADH, pH 7.2, 30 °C, proteoliposomes. Type of test: biochemical.

SMILES strings stand for the structures.

As for `CCCCCCCCCCC1=C(C)C(=O)C(OC)=C(OC)C1=O` [DBQ, decylubiquinone], the “NADH:DBQ oxidoreductase activity, NADH oxidation” value (electron acceptor) is “addition of NADH and the ubiquinone analogue DBQ to subcomplex nb8mΔ proteoliposomes”. Regarding `NC(=O)C1=CN([C@@H]2O[C@H](COP(=O)(O)OP(=O)(O)OC[C@H]3O[C@@H](n4cnc5c(N)ncnc54)[C@H](O)[C@@H]3O)[C@@H](O)[C@H]2O)C=CC1` [NADH], the “NADH:DBQ oxidoreductase activity, NADH oxidation” value (electron donor) was “addition of NADH and the ubiquinone analogue DBQ to subcomplex nb8mΔ proteoliposomes”.
